Laboratory results: article PMC6194148, “Phenylindanes in Brewed Coffee Inhibit Amyloid-Beta and Tau Aggregation” (Frontiers in Neuroscience, 2018)
Read-outs that look alike come from different tables or passages of the source. Values belong to the compound of their own block, whether it stands above or below them.

Assays:
Assay type in all cases: biochemical
amyloid-beta (Aβ) [1] = molecular target: T1, amyloid-beta (Aβ) (Homo sapiens, UniProt P05067); experiment: ThT fluorescence fibrillization assay at […]; no inhibition of Aβ oligomerization; design: gene APP; Aβ1-40; settings: read-out: Aβ fibril inhibition (%)
Target sequence in this assay (P05067 672-711): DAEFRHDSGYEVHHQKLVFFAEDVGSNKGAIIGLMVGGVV

amyloid-beta (Aβ) [2] = molecular target: T1, amyloid-beta (Aβ); experiment: Aβ oligomerization ELISA (biotinylated Aβ[…]-42); also ThT fibrillization, […] inhibition at […]; design: gene APP; biotinylated Aβ1-42 (oligomerization); Aβ1-40 (fibrillization)
Target sequence in this assay (P05067 672-713): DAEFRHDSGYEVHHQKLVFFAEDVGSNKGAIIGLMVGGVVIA

tau (tau40) = molecular target: T2, tau (tau40) (Homo sapiens, UniProt P10636); experiment: ThS fluorescence fibrillization assay (heparin-containing buffer); […] inhibition at […], […] at […]; settings: read-out: Tau fibril inhibition (%)
T2 construct: gene MAPT; Human tau40, tag-free, expressed in E. coli

amyloid-beta (Aβ) [3] = molecular target: T1, amyloid-beta (Aβ); experiment: Aβ oligomerization ELISA (biotinylated Aβ[…]-42); also ThT fibrillization, […] inhibition at […]; design: gene APP; biotinylated Aβ1-42 (oligomerization); Aβ1-40 (fibrillization); remark: listed apart in the source
Target sequence in this assay (P05067 672-713): as above

T2 sequence (P10636 2-441 isoform P10636-8): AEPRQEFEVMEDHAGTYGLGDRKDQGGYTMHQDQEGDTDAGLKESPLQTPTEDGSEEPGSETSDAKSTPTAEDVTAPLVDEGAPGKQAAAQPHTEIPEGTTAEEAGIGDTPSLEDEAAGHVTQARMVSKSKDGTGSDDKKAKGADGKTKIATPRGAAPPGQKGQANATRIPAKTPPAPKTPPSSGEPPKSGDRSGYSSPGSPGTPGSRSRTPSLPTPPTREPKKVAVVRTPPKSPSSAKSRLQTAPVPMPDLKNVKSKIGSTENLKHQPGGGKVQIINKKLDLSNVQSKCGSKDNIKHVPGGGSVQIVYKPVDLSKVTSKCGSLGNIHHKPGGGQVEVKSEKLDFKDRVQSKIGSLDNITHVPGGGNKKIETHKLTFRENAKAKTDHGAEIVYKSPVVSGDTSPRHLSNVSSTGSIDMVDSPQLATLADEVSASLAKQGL

inhibition at 100 µM (amyloid-beta (Aβ) [1]): 97.7 ± 0.7%
Structure (SMILES): O=C(/C=C/c1ccc(O)c(O)c1)O[C@@H]1C[C@](O)(C(=O)O)C[C@@H](O)[C@H]1O [compound 2, Chlorogenic acid]

inhibition at 100 µM (amyloid-beta (Aβ) [1]): 99.4 ± 0.9%
Structure (SMILES): O=C(O)/C=C/c1ccc(O)c(O)c1 [compound 4, Caffeic acid]

Structure (SMILES): O=c1c(O)c(-c2ccc(O)c(O)c2)oc2cc(O)cc(O)c12 [compound 5, Quercetin]
IC50 (amyloid-beta (Aβ) [2]): 10.3 ± 1.1 µM

inhibition at 100 µM (tau (tau40)): 95.2 ± 1.7% | IC50 (amyloid-beta (Aβ) [3]): 42.1 ± 1.4 µM
Structure (SMILES): CC1CC(c2ccc(O)c(O)c2)c2cc(O)c(O)cc21 (mixture of isomers) [compound 6, Phenylindane]
